What was measured:
Test in all cases: relative viability (nuclei count vs DMSO), 5 days (fraction); higher = more cells survive
LCLC-103H = test system: LCLC-103H
Summary of the method: (§1)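 Five library-drug doses in √10 steps were combined with a fixed anchor-drug dose, or a single drug was given alone, by pin tool to lung cancer cell lines in 1536-well plates the day after seeding. Nuclei were stained and counted after 5 days. Relative viability is the nuclei count in treated wells over that in vehicle wells, taken as the median of duplicate plates.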

LXF-289 = test system: LXF-289
Summary of the method: as §1

NCI-H1355 = test system: NCI-H1355
Summary of the method: as §1

NCI-H1651 = test system: NCI-H1651
Summary of the method: as §1

NCI-H1755 = test system: NCI-H1755
Summary of the method: as §1

NCI-H1792 = test system: NCI-H1792
Summary of the method: as §1

NCI-H1915 = test system: NCI-H1915
Summary of the method: as §1

NCI-H2347 = test system: NCI-H2347
Summary of the method: as §1

NCI-H3122 = test system: NCI-H3122
Summary of the method: as §1

NCI-H322M = test system: NCI-H322M
Summary of the method: as §1

NCI-H441 = test system: NCI-H441
Summary of the method: as §1

NCI-H460 = test system: NCI-H460
Summary of the method: as §1

NCI-H520 = test system: NCI-H520
Summary of the method: as §1

NCI-H522 = test system: NCI-H522
Summary of the method: as §1

NCI-H596 = test system: NCI-H596
Summary of the method: as §1

NCI-H661 = test system: NCI-H661
Summary of the method: as §1

NCI-H727 = test system: NCI-H727
Summary of the method: as §1

PC-14 = test system: PC-14
Summary of the method: as §1

RERF-LC-KJ = test system: RERF-LC-KJ
Summary of the method: as §1

SK-MES-1 = test system: SK-MES-1
Summary of the method: as §1

SW 900 = test system: SW 900
Summary of the method: as §1

## COc1nc(C)cnc1NS(=O)(=O)c1cccnc1-c1ccc(-c2nnco2)cc1 [Zibotentan] + Nc1ncn([C@H]2C[C@H](O)[C@@H](CO)O2)c(=O)n1 [Decitabine] (partner 2 µM)
LCLC-103H; first compound 0.08 µM
  relative viability: 0.718
LCLC-103H; first compound 0.253 µM
  relative viability: 0.727
LCLC-103H; first compound 0.8 µM
  relative viability: 0.738
LCLC-103H; first compound 2.53 µM
  relative viability: 0.709
LXF-289; first compound 0.08 µM
  relative viability: 0.357
LXF-289; first compound 0.253 µM
  relative viability: 0.346
LXF-289; first compound 0.8 µM
  relative viability: 0.409
LXF-289; first compound 2.53 µM
  relative viability: 0.367
NCI-H1355; first compound 0.08 µM
  relative viability: 0.346
NCI-H1355; first compound 0.253 µM
  relative viability: 0.337
NCI-H1355; first compound 0.8 µM
  relative viability: 0.368
NCI-H1355; first compound 2.53 µM
  relative viability: 0.35
NCI-H1651; first compound 0.08 µM
  relative viability: 0.657
NCI-H1651; first compound 0.253 µM
  relative viability: 0.607
NCI-H1651; first compound 0.8 µM
  relative viability: 0.567
NCI-H1651; first compound 2.53 µM
  relative viability: 0.516
NCI-H1755; first compound 0.08 µM
  relative viability: 0.737
NCI-H1755; first compound 0.253 µM
  relative viability: 0.616
NCI-H1755; first compound 0.8 µM
  relative viability: 0.8
NCI-H1755; first compound 2.53 µM
  relative viability: 0.732
NCI-H1792; first compound 0.08 µM
  relative viability: 0.491
NCI-H1792; first compound 0.253 µM
  relative viability: 0.549
NCI-H1792; first compound 0.8 µM
  relative viability: 0.547
NCI-H1792; first compound 2.53 µM
  relative viability: 0.575
NCI-H1915; first compound 0.08 µM
  relative viability: 0.248
NCI-H1915; first compound 0.253 µM
  relative viability: 0.262
NCI-H1915; first compound 0.8 µM
  relative viability: 0.27
NCI-H1915; first compound 2.53 µM
  relative viability: 0.257
NCI-H2347; first compound 0.08 µM
  relative viability: 0.583
NCI-H2347; first compound 0.253 µM
  relative viability: 0.586
NCI-H2347; first compound 0.8 µM
  relative viability: 0.744
NCI-H2347; first compound 2.53 µM
  relative viability: 0.604
NCI-H3122; first compound 0.08 µM
  relative viability: 0.472
NCI-H3122; first compound 0.253 µM
  relative viability: 0.379
NCI-H3122; first compound 0.8 µM
  relative viability: 0.357
NCI-H3122; first compound 2.53 µM
  relative viability: 0.377
NCI-H322M; first compound 0.08 µM
  relative viability: 0.74
NCI-H322M; first compound 0.253 µM
  relative viability: 0.679
NCI-H322M; first compound 0.8 µM
  relative viability: 0.733
NCI-H322M; first compound 2.53 µM
  relative viability: 0.856
NCI-H441; first compound 0.08 µM
  relative viability: 0.244
NCI-H441; first compound 0.253 µM
  relative viability: 0.273
NCI-H441; first compound 0.8 µM
  relative viability: 0.264
NCI-H441; first compound 2.53 µM
  relative viability: 0.225
NCI-H460; first compound 0.08 µM
  relative viability: 0.444
NCI-H460; first compound 0.253 µM
  relative viability: 0.287
NCI-H460; first compound 0.8 µM
  relative viability: 0.464
NCI-H460; first compound 2.53 µM
  relative viability: 0.509
NCI-H520; first compound 0.08 µM
  relative viability: 0.62
NCI-H520; first compound 0.253 µM
  relative viability: 0.441
NCI-H520; first compound 0.8 µM
  relative viability: 0.514
NCI-H520; first compound 2.53 µM
  relative viability: 0.575
NCI-H522; first compound 0.08 µM
  relative viability: 0.677
NCI-H522; first compound 0.253 µM
  relative viability: 0.5
NCI-H522; first compound 0.8 µM
  relative viability: 0.718
NCI-H522; first compound 2.53 µM
  relative viability: 0.756
NCI-H596; first compound 0.08 µM
  relative viability: 0.992
NCI-H596; first compound 0.253 µM
  relative viability: 0.911
NCI-H596; first compound 0.8 µM
  relative viability: 1.06
NCI-H596; first compound 2.53 µM
  relative viability: 1.04
NCI-H661; first compound 0.08 µM
  relative viability: 0.557
NCI-H661; first compound 0.253 µM
  relative viability: 0.529
NCI-H661; first compound 0.8 µM
  relative viability: 0.57
NCI-H661; first compound 2.53 µM
  relative viability: 0.552
NCI-H727; first compound 0.08 µM
  relative viability: 0.942
NCI-H727; first compound 0.253 µM
  relative viability: 0.826
NCI-H727; first compound 0.8 µM
  relative viability: 0.908
NCI-H727; first compound 2.53 µM
  relative viability: 0.874
PC-14; first compound 0.08 µM
  relative viability: 0.267
PC-14; first compound 0.253 µM
  relative viability: 0.198
PC-14; first compound 0.8 µM
  relative viability: 0.287
PC-14; first compound 2.53 µM
  relative viability: 0.265
RERF-LC-KJ; first compound 0.08 µM
  relative viability: 0.699
RERF-LC-KJ; first compound 0.253 µM
  relative viability: 0.558
RERF-LC-KJ; first compound 0.8 µM
  relative viability: 0.708
RERF-LC-KJ; first compound 2.53 µM
  relative viability: 0.634
SK-MES-1; first compound 0.08 µM
  relative viability: 0.389
SK-MES-1; first compound 0.253 µM
  relative viability: 0.285
SK-MES-1; first compound 0.8 µM
  relative viability: 0.447
SK-MES-1; first compound 2.53 µM
  relative viability: 0.365
SW 900; first compound 0.08 µM
  relative viability: 0.482
SW 900; first compound 0.253 µM
  relative viability: 0.345
SW 900; first compound 0.8 µM
  relative viability: 0.49
SW 900; first compound 2.53 µM
  relative viability: 0.438
